Experimental data taken from the supplement of paper PMC11061612.

Key:
Test in all cases: combination Emax (second highest fraction inhibited in the dose matrix, 72 h); higher = more inhibition; extreme values may be limits of the assay
[1] = tested on: MDST8 (Colorectal Carcinoma)
Procedure, shortened: (§1)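 Cell lines in DMEM/F12 or RPMI with 10% FBS were plated in 1536-well plates, held 24 hours at 37°C, 5% CO2, then given two-drug dose matrices for 72 hours (DMSO typically 0.2%). Viability was read by CellTiter-Glo 2.0 luminescence and scaled as inhibition from 0 (vehicle wells) to 1 (blank wells). Combination Emax is the second-highest inhibition in the matrix; Bliss excess is observed combination effect minus expected EA + EB − EA·EB, EA and EB being single-agent effects.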

8-MG-BA (Glioblastoma) = tested on: 8-MG-BA (Glioblastoma)
Procedure, shortened: as §1

NCI-H2591 (Mesothelioma) = tested on: NCI-H2591 (Mesothelioma)
Procedure, shortened: as §1

[2] = tested on: SK-MES-1 (Squamous Cell Lung Carcinoma)
Procedure, shortened: as §1

[3] = tested on: A3-KAW (B-Cell Non-Hodgkin's Lymphoma)
Procedure, shortened: as §1

[4] = tested on: COLO-320-HSR (Colorectal Carcinoma)
Procedure, shortened: as §1

[5] = tested on: NCI-H2141 (Small Cell Lung Carcinoma)
Procedure, shortened: as §1

[6] = tested on: NCI-H64 (Small Cell Lung Carcinoma)
Procedure, shortened: as §1

[7] = tested on: BICR22 (Oral Cavity Carcinoma)
Procedure, shortened: as §1

[8] = tested on: COR-L311 (Small Cell Lung Carcinoma)
Procedure, shortened: as §1

Hs-445 (Non-Cancerous) = tested on: Hs-445 (Non-Cancerous)
Procedure, shortened: as §1

[9] = tested on: TT2609-C02 (Thyroid Gland Carcinoma)
Procedure, shortened: as §1

[10] = tested on: PANC-10-05 (Pancreatic Carcinoma)
Procedure, shortened: as §1

A498 (Kidney Carcinoma) = tested on: A498 (Kidney Carcinoma)
Procedure, shortened: as §1

[11] = tested on: ECC10 (Gastric Carcinoma)
Procedure, shortened: as §1

IGR-37 (Melanoma) = tested on: IGR-37 (Melanoma)
Procedure, shortened: as §1

[12] = tested on: NCI-H1693 (Lung Adenocarcinoma)
Procedure, shortened: as §1

[13] = tested on: NCI-H2066 (Squamous Cell Lung Carcinoma)
Procedure, shortened: as §1

[14] = tested on: KARPAS-422 (B-Cell Non-Hodgkin's Lymphoma)
Procedure, shortened: as §1

ARH-77 (Non-Cancerous) = tested on: ARH-77 (Non-Cancerous)
Procedure, shortened: as §1

## C[C@@H](c1ccc2nccn2c1)n1nnc2ncc(-c3cnn(C)c3)nc21 [Savolitinib] + Cc1c2c(nn1C)CSCc1cc(n(C)n1)CSc1cc(c3ccccc3c1)OCCCc1c(C(=O)O)n(C)c3c-2c(Cl)ccc13 [AZD5991] (first compound max 1 µM, 7x7, partner max 1 µM)
[1]
  combination Emax: 0.159
8-MG-BA (Glioblastoma)
  combination Emax: 0.595
NCI-H2591 (Mesothelioma)
  combination Emax: 0.216
[2]
  combination Emax: 0.228
[3]
  combination Emax: 1
[4]
  combination Emax: 0.779
[5]
  combination Emax: 0.234
[6]
  combination Emax: 0.0956
[7]
  combination Emax: 0.269
[8]
  combination Emax: 0.246
Hs-445 (Non-Cancerous)
  combination Emax: 0.211
[9]
  combination Emax: 0.156
[10]
  combination Emax: 0.153
A498 (Kidney Carcinoma)
  combination Emax: 0.212
[11]
  combination Emax: 0.503
IGR-37 (Melanoma)
  combination Emax: 0.279
[12]
  combination Emax: 0.108
[13]
  combination Emax: 0.169
[14]
  combination Emax: 0.961
ARH-77 (Non-Cancerous)
  combination Emax: 0.245
